# Entries after “also recorded” stand apart in the source; their conditions may differ.
# Assays:
# [1] = tested on: immobilized S. aureus cells; assay: Fluorescence microscopy binding of labeled peptides to immobilized bacteria, S. aureus; parameters: species or system Staphylococcus aureus; details: for Binding to S. aureus (fluorescent staining): 25 μM fluorescein-labeled peptide, 10 minutes, immobilized cells; for Binding to immobilized S. aureus relative to peptides of the original pilot library: refined libraries, fluorescence images
# Method: (§1) Peptide samples were prepared at a concentration of 25 μM for screening against a variety of organisms by exposing immobilized bacteria to labeled peptides. For bacterial cell binding assays, cells were grown overnight, washed, and immobilized in a polylysine-coated 96-well plate. Fluorescein-labeled peptide samples were applied to immobilized bacteria, incubated for 10 minutes and washed extensively to remove unbound peptide. Samples were visualized by fluorescence microscopy. For each peptide, both brightfield and fluorescence images were collected, and camera and microscope settings were not altered between images. The locations of cells and background regions were determined using the brightfield images; those regions were then selected in the fluorescence images for quantitation of pixel values for determination of relative fluorescence intensities (represented as bacterial fluorescence/background fluorescence) using the GNU Image Manipulation Program (The GIMP, see, e.g., www.gimp.org).
# The following bacterial species and strains were used: Lactobacillus casei (strain), Escherichia coli (W3110), Enterococcus faecium (strain), Streptococcus mutans (UA140), Streptococcus mitis (ATCC 903), Streptococcus gordonii (NY101), Pseudomonas aeruginosa(strain K), Klebsiella pneumoniae (KAY2026), Myxococcus xanthus (Strains DK1622, wildtype, and difA, exopolysaccharide deficient^21), Micrococcus luteus (strain MS2, a community isolate), Staphylococcus epidermidis (strain), and Staphylococcus aureus(strains, and AM1, a methicillin/oxacillin-resistant community isolate).
# For isolation of community-acquired S. aureus and M. luteus strains (strains MS2 and AM1), swabs were collected from the nostrils of several volunteers and streaked on Brain-Heart Infusion (BHI) agar and incubated at 37° C. overnight. Yellow colonies were isolated and typed (Microbial ID, Inc., Newark, Del.). Antibiotic resistance was assayed by plating on BHI in the presence of various antibiotics. Commercially available antibiotic susceptibility test disks were used to assay for oxacillin resistance (BD Biosciences), according to the manufacturer's instructions. Due to the difficulty of obtaining methicillin, oxacillin resistance was used as a proxy for methicillin resistance in isolated strains.^22
# The peptides comprising these two refined libraries were synthesized, labeled, and screened against immobilized S. aureus cells exactly as for the original pilot library.
# (§2) To examine the specificities of the peptides identified in this experiment, a diverse panel of various strains of bacteria was assembled, consisting of Lactobacillus casei, Escherichia coli, Enterococcus faecalis, Streptococcus mutans, Streptococcus mitis, Streptococcus gordonii, Pseudomonas aeruginosa, Klebsiella pneumoniae, Micrococcus luteus (strain MS2), Staphylococcus epidermidis, and two strains of Staphylococcus aureus: a methicillin/oxacillin-sensitive community isolate and our methicillin/oxacillin-resistant community isolate of (strain AM1). Peptides 3C and 4D from the original pilot library were screened for binding against these bacteria by fluorescence microscopy, and images were analyzed as before.
# S. aureus AM1 = assay: Pulldown binding assay, Langmuir isotherm fit, S. aureus; parameters: species or system Staphylococcus aureus; details: for Langmuir Affinity (Ka): association constant from Langmuir isotherm fit, fluorescein-labeled peptide 0-100 μM; for Monolayer Concentration (N): maximum surface concentration from Langmuir fit
# Excerpt: (§3) To investigate whether the changes in the observed level of binding were due to changes in the affinities or avidities of the refined peptides for cell surfaces, binding curves were generated for selected peptides and fit to the Langmuir isotherm (where possible), the simplest model describing binding to surfaces (peptides showing either complex or nonspecific binding isotherms were excluded from this analysis).
# (§4) Measurements were taken of the absorbance of the labeled peptide at 488 nm (the peak absorbance of the fluorescein label) before and after exposure to the cells. The amount of peptide bound was calculated by comparing the ratio of the final (Af) and initial (Ai) absorbances to the initial concentration (C0)[Cbound=C0(1−(Af/Ai))]. Bacterial surface area per sample was calculated using a stage micrometer to determine the average cell diameter for each species (1.0+/−0.1 μm for S. aureus AM1, 2.7+/−0.1 μm for M. luteus MS2), treating individual cells as discrete spheres. Average cell concentration per unit OD600 was calculated using a hemocytometer.
# (§5) Plots were then generated of the amount of peptide bound per m^2 of bacterial surface area vs. the concentration of unbound peptide at equilibrium. Where possible, the resulting isotherms were fit to the Langmuir isotherm (P/A=(KaNCeq)/(1+KaCeq), where P/A represents the molar amount of peptide bound per unit of bacterial surface area, Ka is the association constant of the peptide with the bacterial surface (L/Mol), N is the maximum surface concentration (mol/m^2), and Ceq is the molar concentration of unbound peptide at equilibrium) (Calis et al. (1995) Pharm Res 12(7): 1072-1076). Data plots and curvefits were obtained using Kaleidagraph (Synergy Software).
# M. luteus MS2 = assay: Pulldown binding assay, Langmuir isotherm fit, M. luteus; parameters: species or system Micrococcus luteus; details: for Langmuir Affinity (Ka): association constant from Langmuir isotherm fit; for Monolayer Concentration (N): maximum surface concentration from Langmuir fit
# Excerpt: as §3, §4, §5
# [2] = Confocal laser scanning microscopy of labeled peptides on tooth sections; type: binding; details: sectioned human tooth, CLSM
# Excerpt: The fluorescein-labeled peptides in the initial pilot library were pooled and screened by Confocal Laser Scanning Microscopy as follows. The quadrants of the library were collected into four pools of 9 peptides each. Peptides were screened by exposing the pooled, 5(6)-carboxyfluorescein-labeled peptides to sections taken from human teeth (extracted during normal clinical practice), followed by visualization of the samples by Confocal Laser Scanning Microscopy (CLSM).
# [3] = tested on: Chinese Hamster Ovary (CHO) cells; assay: Pilot library binding to CHO cells; details: fluorescence image
# Method: as §1
# (§6) The use of this technology is not limited to bacterial surfaces.
# [4] = tested on: Candida albicans cells (strain 4741); assay: Pilot library binding to Candida albicans cells; details: fluorescence image
# Method: as §1, §6
# M. luteus = assay: Fluorescence microscopy binding of labeled peptides to immobilized bacteria, M. luteus; parameters: species or system Micrococcus luteus; details: 25 μM fluorescein-labeled peptide, immobilized cells
# Method: as §1, with “www.gimp.org). […]” for “www.gimp.org).”
# as §2
# [5] = tested on: diverse panel of various strains of bacteria; assay: Specificity screen by fluorescence microscopy against a bacterial panel; type: binding; details: bacteria other than S. aureus and M. luteus
# Method: as §1, with “www.gimp.org). […]” for “www.gimp.org).”
# as §2
substance,measurement,setting,value
"Pilot Library 4C: pilot library 9-mer, SEQ ID NO:24; became A4 of the in-plane matrix (SEQ ID NO:49) (LIKDILERL; synthetic pilot library peptide C4)",Binding to S. aureus (fluorescent staining),[1],some of the brightest unique staining
same,Langmuir Affinity (Ka),S. aureus AM1,5 ± 1 M^−1 × 10000
same,Monolayer Concentration (N),S. aureus AM1,0.23 ± 0.2 Mol/m^2 × 0.0001
same,Langmuir Affinity (Ka),M. luteus MS2,1 ± 0.6 M^−1 × 10000
same,Monolayer Concentration (N),M. luteus MS2,0.10 ± 0.04 Mol/m^2 × 0.0001
AMKDAMERM (synthetic peptide with tissue-specific binding to tooth enamel and enamel-proximal region of dentino-enamel junction) [Pilot Library 4F],Binding to dentin,[2],no obvious binding
same,Binding to tooth enamel and enamel side of the dentin-enamel junction,[2],clear binding
"Pilot Library 3D: pilot library 9-mer, SEQ ID NO:29; became D1 of the in-plane matrix (SEQ ID NO:58) (VASYVATQV; synthetic pilot library peptide D3)",Binding to S. aureus (fluorescent staining),[1],some of the brightest unique staining
same,Langmuir Affinity (Ka),S. aureus AM1,6 ± 1 M^−1 × 10000
same,Monolayer Concentration (N),S. aureus AM1,0.18 ± 0.2 Mol/m^2 × 0.0001
same,Langmuir Affinity (Ka),M. luteus MS2,10 ± 7 M^−1 × 10000
same,Monolayer Concentration (N),M. luteus MS2,0.021 ± 0.004 Mol/m^2 × 0.0001
"Pilot Library 3A: pilot library 9-mer, SEQ ID NO:11 (WWSYWWTQW; synthetic pilot library peptide A3)",Binding to CHO cells,[3],binding
same,Binding to C. albicans,[4],binding
"Pilot Library 3C: pilot library 9-mer, SEQ ID NO:23; became A1 of the in-plane matrix (SEQ ID NO:46) (LISYILTQL; synthetic pilot library peptide C3)",Binding to M. luteus (fluorescent staining),M. luteus,Binding was clearly seen; also recorded: binds well
same,Binding to S. aureus (fluorescent staining),[1],Binding was clearly seen; also recorded: binds well
same,Binding to S. aureus (fluorescent staining),[1]; listed as Pilot Library C3,some of the brightest unique staining
same,Langmuir Affinity (Ka),S. aureus AM1,5.6 ± 0.9 M^−1 × 10000
same,Monolayer Concentration (N),S. aureus AM1,0.31 ± 0.2 Mol/m^2 × 0.0001
same,Binding to the other bacteria of the panel,[5],significant levels of binding to several of the other bacteria tested; also recorded: significant binding to several strains
same,Langmuir Affinity (Ka),M. luteus MS2,4 ± 1 M^−1 × 10000
same,Monolayer Concentration (N),M. luteus MS2,0.12 ± 0.02 Mol/m^2 × 0.0001
"In-plane refinement 1B: in-plane refined library peptide, SEQ ID NO:50 (IVSYVITQL; synthetic in-plane refinement library peptide B1)",Binding to M. luteus (fluorescent staining),M. luteus,strongest binding
same,Binding to S. aureus (fluorescent staining),[1],strongest binding
same,Binding to immobilized S. aureus relative to peptides of the original pilot library,[1],enhanced binding
same,Binding to the other bacteria of the panel,[5],no significant binding
same,Langmuir Affinity (Ka),M. luteus MS2,2.4 ± 0.8 M^−1 × 10000
same,Monolayer Concentration (N),M. luteus MS2,0.11 ± 0.02 Mol/m^2 × 0.0001
"In-plane refinement 3A: in-plane refined library peptide, SEQ ID NO:48 (LIERILQNL; synthetic in-plane refinement library peptide A3)",Binding to S. aureus (fluorescent staining),[1],binding was seen only to the methicillin/oxacilin-resistant strain of S. aureus
same,Binding to immobilized S. aureus relative to peptides of the original pilot library,[1],enhanced binding
same,Affinity relative to initial hits / parent peptide of the pilot library,S. aureus AM1; in words,increased affinity
same,Langmuir Affinity (Ka),M. luteus MS2,8 ± 3 M^−1 × 10000
same,Nmax relative to peptides from the parent library,M. luteus MS2; in words,sharp reduction
same,Monolayer Concentration (N),M. luteus MS2,0.0047 ± 0.006 Mol/m^2 × 0.0001
"Pilot Library E4: pilot library 9-mer, SEQ ID NO:36 (AMKDAMERM; synthetic pilot library peptide E4)",Binding to dentin,[2],No significant staining
same,Binding to tooth enamel and enamel side of the dentin-enamel junction,[2],clear fluorescent staining
"Orthogonal refinement 2C: orthogonal refined library peptide, SEQ ID NO:71 (IVSQVIQNL; synthetic orthogonal refinement library peptide C2)",Langmuir Affinity (Ka),S. aureus AM1,1.1 ± 0.3 M^−1 × 10000
same,Monolayer Concentration (N),S. aureus AM1,7 ± 1 Mol/m^2 × 0.0001
same,Langmuir Affinity (Ka),M. luteus MS2,1.4 ± 0.4 M^−1 × 10000
same,Monolayer Concentration (N),M. luteus MS2,0.12 ± 0.03 Mol/m^2 × 0.0001
"Pilot Library 4D: pilot library 9-mer, SEQ ID NO:30; corner of the in-plane matrix (SEQ ID NO:61) (VAKDVAERV; synthetic pilot library peptide D4)",Binding to M. luteus (fluorescent staining),M. luteus,Binding was clearly seen
same,Binding to S. aureus (fluorescent staining),[1],Binding was clearly seen
same,Binding to S. aureus (fluorescent staining),[1]; listed as Pilot Library D4,some of the brightest unique staining
same,Langmuir Affinity (Ka),S. aureus AM1,5 ± 3 M^−1 × 10000
same,Monolayer Concentration (N),S. aureus AM1,0.12 ± 0.3 Mol/m^2 × 0.0001
same,Binding to the other bacteria of the panel,[5],significant levels of binding to several of the other bacteria tested; also recorded: significant binding to several strains
same,Langmuir Affinity (Ka),M. luteus MS2,5 ± 2 M^−1 × 10000
same,Monolayer Concentration (N),M. luteus MS2,0.16 ± 0.02 Mol/m^2 × 0.0001

# Source: US20090298707A1, “SPARSE MATRIX SYSTEM AND METHOD FOR IDENTIFICATION OF SPECIFIC LIGANDS OR TARGETS” (priority 2008, published 2009)
